Results on three molecules are retold here after paper PMC6418145 (Scientific Reports, 2019).

The structures appear in SMILES notation.

Series [1] can be described thus: in vivo. As to conditions: mouse, ip.
Method: (§1) Blood (approximately 100 µl) was collected from the vena facialis in anaesthetised animals, followed by CSF sampling (approximately 10 µl) from the cisterna magna under pentobarbital anaesthesia (1:25 in saline, 10 ml/kg, i.p., Narcoren, Boehringer Ingelheim, Germany). Subsequently, the brain was removed and its anterior third (including the medial prefrontal and anterior cingulate cortices) dissected and transferred into Precellys tubes cooled in liquid nitrogen. For plasma extraction, blood was transferred to EDTA coated tubes and centrifuged for 10 min at 10,000 rpm at 4 °C. Maximal plasma concentration (Cmax), time taken to reach maximal plasma concentration (Tmax) and mean residence time were assessed using liquid chromatography–mass spectrometry analysis executed on the HP1200 (Agilent, CA, USA) coupled to the API 6500 (AB Sciex, Germany) using BI00001052 (Boehringer Ingelheim) as internal standard. In short, 5 µl of plasma or CSF sample were mixed with 10 nl internal standard. 70 µl acetonitrile (ACN)/methanol (1:1) was added, kept at −20 °C for 15 min and centrifuged for 4 min at 4000 rpm at 4 °C. 30 µl of the supernatant was mixed with 170 µl 0.1% formic acid. Brain homogenization was executed by Precellys Evolution (Bertin) after adding ACN/methanol (1:1)/aq.dest. (3:1) to each brain sample with a volume corresponding to 4 parts of the brain weight, followed by centrifugation for 1 min at 4000 rpm at 4 °C. 5 µl of the supernatant was mixed with 10 nl of internal standard.
Series [2] has as its system C57BL/6 J mice. The series is described as follows: 5-choice serial-reaction-time task (5-CSRTT), unspecific behavioural effects. It is filed as in vivo. The method, then:
Training was performed in 16 standard mouse Bussey-Saksida touchscreen chambers (model #80614, Campden Instruments Ltd., UK), previously described in detail. In short, each trapezoidal operant chamber was placed in a sound- and light- attenuating box individually equipped with a house light, a reward magazine with light, a liquid reward dispenser, a sound generator, a perforated stainless steel floor, and a touchscreen placed at the wide end of the chamber and covered permanently by a black acrylic glass 5-hole mask. The reward magazine, located opposite the touchscreen, was connected to a liquid dispenser delivering strawberry milk (Yazoo®). Infrared break-beam sensors located inside and on the front of the food magazine as well as on the touch-screen walls allowed the detection of reward delivery and the animal’s locomotor activity, respectively. Four individual chambers were connected to one computer for controlling the task flow using the graphical task design software ABET II Touch (model #89505, Campden Instruments Ltd., UK) and the WhiskerServer software (Cambridge University Technical Services Ltd., UK)[27].
Mice were habituated to the chambers for three consecutive 20-min sessions during which the house light and magazine light were permanently on. At the start of each session, 30 µl strawberry milk was delivered. Every 15 s after head entry into the magazine, an additional 30 µl strawberry milk was delivered. Head entry turned the magazine light off.
The 5-CSRTT training protocol, originally designed for rats[28], was similar as that previously described for mice[29]–[31]. The training comprised six stages with 30-min sessions initiated by the illumination of the house and magazine lights and delivery of 20 µl strawberry milk. Collection of the reward switched the magazine light off and started the first trial.
In the first stage, the middle window was permanently illuminated, which was turned off when touched, followed by reward delivery (20 µl) with illumination of the magazine light. Head entry switched off the magazine light. Mice performing 30 trials in a session continued to the next stage. Training sessions in stages 2–6 comprised a maximum of 120 trials. Collection of the reward initiated the inter-trial interval (ITI) followed by the illumination of one pseudo-randomly selected aperture for a fixed stimulus duration (SD). Any touch to the screen during the ITI was classified as a premature response which was not counted as a trial and terminated the current trial. Following stimulus detection, a nose poke to the corresponding aperture within a fixed time interval (limited hold; LH) was required for reward delivery. Premature responses made during the ITI, incorrect responses, and the omission of a response within the LH led to a timeout (TO, house light switched off for 4 s) instead of delivery of reward. Correct, incorrect and omitted responses defined the total number of trials. […] The criteria to pass the last stage and reach baseline performance were to complete >30 correct trials, with ≥80% accuracy and ≤30% omissions. Percentage accuracy was defined as the number of correct trials divided by the sum of correct and incorrect trials. Percentage omissions were calculated in terms of the number of completed trials. Premature responding was calculated as a percentage of completed trials. Perseveration was calculated as the number of additional responses made in the same aperture following a correct response. Additionally, the correct-response latency (time from stimulus presentation to correct response) and reward latency (time from correct response to reward collection) were measured across all trials.
Either one or up to three days before, as well as one day after the task challenge, mice were trained at baseline conditions to check for any unexpected changes in task performance (e.g. by long lasting drug- or challenge-induced effects). […]

A short description of series [3]: Pharmacokinetics in plasma, CSF and cortical brain tissue after i.p. injection.
Method: as §1
For series [4], the target named is T1, M3 muscarinic receptor (Homo sapiens, UniProt P20309).
T1 construct: expressed in transfected cells; host or cells: HEK-293 or CHO
The series is described as follows: Off-target radioligand binding. The note with it: 10 μM compound.

For series [5], the target named is COX2 (Homo sapiens, UniProt P35354). The series is described as follows: Off-target enzyme assay. In kind it is biochemical. As to conditions: 10 μM compound, not shown.
Series [6] concerns 5-HT1B serotonin receptor. The series is described as follows: Off-target radioligand binding. Also noted: species or system human. As to conditions: 10 μM compound.
Series [7] deals with AChE (Homo sapiens, UniProt P22303). The note with it: 10 μM compound, not shown.
The target of series [8] is PDE4D2 (Homo sapiens, UniProt Q08499). The series is described as follows: Off-target enzyme assay. It is filed as biochemical. The note with it: 10 μM compound, not shown.
The target of series [9] is T2, D1 dopamine receptor (Homo sapiens, UniProt P21728).
T2 construct: expressed in transfected cells; host or cells: HEK-293 or CHO
The series is described as follows: Off-target radioligand binding. The note with it: 10 μM compound.

Series [10] addresses COX1 (Homo sapiens, UniProt P23219). The series is described as follows: Off-target enzyme assay. It is filed as biochemical. The note with it: 10 μM compound, not shown.
Series [11] addresses T3, 5-HT2B serotonin receptor (Homo sapiens, UniProt P41595).
T3 construct: expressed in transfected cells; host or cells: HEK-293 or CHO
The series is described as follows: Off-target radioligand binding. The note with it: 10 μM compound.

Series [12] has as its system hM3Dq. On the set-up: method as in PMID 25587888. As to conditions: FLIPR assay; cited from earlier work.
In series [13] the target is T4, D2 dopamine receptor (Homo sapiens, UniProt P14416).
T4 construct: expressed in transfected cells; host or cells: HEK-293 or CHO
The series is described as follows: Off-target radioligand binding. The note with it: 10 μM compound.

Series [14] has as its target T5, α1A adrenoreceptor (Homo sapiens, UniProt P35348).
T5 construct: expressed in transfected cells; host or cells: HEK-293 or CHO
The series is described as follows: Off-target radioligand binding. The note with it: 10 μM compound.

The target of series [15] is Lck kinase (Homo sapiens, UniProt P06239). The series is described as follows: Off-target enzyme assay. In kind it is biochemical. The note with it: 10 μM compound, not shown.
Series [16] deals with T6, 5-HT2A serotonin receptor (Homo sapiens, UniProt P28223).
T6 construct: expressed in transfected cells; host or cells: HEK-293 or CHO
The series is described as follows: Off-target radioligand binding. As to conditions: 10 μM compound.
Method: Receptors and transporters of interest were overexpressed in either human recombinant human embryonic kidney (HEK)-293 or Chinese hamster ovary (CHO) cells. […] Results are expressed as percent inhibition of control-specific binding of the radioactively labelled ligand specific for the respective target. For enzyme inhibition, the effect was calculated as a percent inhibition of control enzyme activity. […] All presented values are the mean of two experiments.

The target of series [17] is PDE3A (Homo sapiens, UniProt Q14432). The series is described as follows: Off-target enzyme assay. In kind it is biochemical. The note with it: 10 μM compound, not shown.
In series [18] the target is T7, 5-HT1A serotonin receptor (Homo sapiens, UniProt P08908).
T7 construct: expressed in transfected cells; host or cells: HEK-293 or CHO
The series is described as follows: Off-target radioligand binding. As to conditions: 10 μM compound.

The target of series [19] is T8, hM4Di (Homo sapiens, UniProt P08173, A203G/Y113C).
T8 construct: expressed in transfected cells; host or cells: primary cortical neurons of embryonic (E18) Sprague-Dawley rats, AAV-transduced
T8 sequence (P08173 1-479 Y113C/A203G): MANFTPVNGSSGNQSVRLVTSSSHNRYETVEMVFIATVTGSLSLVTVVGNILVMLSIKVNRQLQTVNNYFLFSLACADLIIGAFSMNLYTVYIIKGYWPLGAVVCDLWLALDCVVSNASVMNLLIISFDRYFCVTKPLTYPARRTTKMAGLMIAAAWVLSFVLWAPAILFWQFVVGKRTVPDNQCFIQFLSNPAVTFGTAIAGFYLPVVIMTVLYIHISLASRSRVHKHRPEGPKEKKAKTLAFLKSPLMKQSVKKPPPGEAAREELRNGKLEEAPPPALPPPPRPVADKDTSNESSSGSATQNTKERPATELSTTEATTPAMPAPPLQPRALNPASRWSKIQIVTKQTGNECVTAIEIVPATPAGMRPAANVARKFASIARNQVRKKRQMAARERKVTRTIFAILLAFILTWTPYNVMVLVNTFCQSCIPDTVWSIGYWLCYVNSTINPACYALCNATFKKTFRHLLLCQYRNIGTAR
The series is described as follows: FLIPR Ca2+ oscillation assay in primary rat neuronal cultures transduced with hM4Di. The note with it: reduction of Ca2+ oscillation frequency, hM4Di-transduced rat primary neurons, Hill fit; read-out: half maximal effective concentration (EC50) at hM4Di. In kind it is cell-based.
Method: Briefly, cortices were dissected from embryonic brains, meninges were removed, and cortices transferred into ice-cold dissociation buffer (2 mM kynurenic acid, 10 mM HEPES, 20 mM MgCl2 (Fluka, Germany) and 33.4 mM Glucose in Hank’s Balanced Salt Solution (HBSS), pH 7.4 (Gibco, Thermo Fischer Scientific, Massachusetts, USA). Cortices were then dissociated in 20 units/ml papain solution (5.5 mM L- Cysteine hydrochloride, 1.1 mM ethylenediamine tetra-acetic acid [EDTA], 0.067 mM 2-Mercaptoethanol in Minimum Essential Medium [MEM]) for 15 min at 37 °C. Cortices were washed twice by adding 20 ml plating medium (1:50 foetal calve serum, 1:100 penicillin/streptomycin and 1:100 GlutaMax in MEM) followed by cell filtration using a 70 µm cell strainer (Corning, model #352350, Merck, Germany) to obtain a single-cell suspension. Dissociated cells were re-suspended in serum-free Neurobasal medium with Glutamax and B27 supplement (Gibco) and plated on PDL-coated 96 MTPs (Corning #356640). Virus (ssAAV-1/2-hSyn1-hM4D[Gi]_mCherry-WPRE-hGHp[A]) transduction was performed immediately after plating. Cells were maintained at 37 °C (5% CO2 and 10% O2) in a humidified incubator. A half feed medium change was done on DIV8. Final assay conditions used for evaluating activity of compounds were 0.95 × 10^5 cells/cm^2, transduced with 10.000 multiplicity of infection and measured on DIV9.
Medium was removed and cells were incubated in assay buffer (HBSS, Gibco, 10 mM HEPES, pH 7.4) containing 4 µM Fluo-4AM (Thermo Fischer Scientific) and 0.1% Pluronic F-127 (Thermo Fischer Scientific #P3000MP) for 1 h at room temperature in the dark. Loading buffer was then replaced with assay buffer. After 10 min, assay plates were measured in the FLIPR tetra (Molecular Devices, California, USA) using green fluorescence filter settings (excitation 470–495 nm, emission 515–575 nm). Fluorescence signals were recorded at 1 s intervals (0.4 s exposure time). Compound addition was automated in a single addition protocol. Tested compounds (concentrations:0.3 nM–1 µM; retigabine at 30 µM) were added after recording a baseline response for 5 min followed by another 5 min for recording compound effects on Ca^2+ oscillations. Each compound dose was repeated on three individual plates in duplicates.
Time-series raw fluorescence traces recorded from the FLIPR assay were analysed by detecting Ca^2+ peaks based on a fixed amplitude threshold[19]. The change in oscillation frequency was determined by counting the number of peaks in a defined time interval (5 min) before and after addition of the tested compound and calculating the Ca^2+ oscillations frequency from their number. […] For visualisation, all data were transferred to GraphPad Prism 7 (Graphpad Software, Inc., CA, USA).

In series [20] the target is T9, δ opioid receptor (Homo sapiens, UniProt P41143).
T9 construct: expressed in transfected cells; host or cells: HEK-293 or CHO
The series is described as follows: Off-target radioligand binding. The note with it: 10 μM compound.

Series [21] relates to κ opioid receptor. The series is described as follows: Off-target radioligand binding. As to conditions: 10 μM compound. Also noted: species or system human.
The target in series [22] is T10, M2 muscarinic receptor (Homo sapiens, UniProt P08172).
T10 construct: expressed in transfected cells; host or cells: HEK-293 or CHO
The series is described as follows: Off-target radioligand binding. The note with it: 10 μM compound.

In series [23] the target is T11, μ opioid receptor (Homo sapiens, UniProt P35372).
T11 construct: expressed in transfected cells; host or cells: HEK-293 or CHO
The series is described as follows: Off-target radioligand binding. As to conditions: 10 μM compound.

For series [24], the target named is 5-HT3 serotonin receptor (Homo sapiens, UniProt P46098). The series is described as follows: Off-target radioligand binding. The note with it: 10 μM compound.
In series [25] the target is T12, H1 histamine receptor (Homo sapiens, UniProt P35367).
T12 construct: expressed in transfected cells; host or cells: HEK-293 or CHO
The series is described as follows: Off-target radioligand binding. The note with it: 10 μM compound.

Series [26] concerns the target T13, M1 muscarinic receptor (Homo sapiens, UniProt P11229).
T13 construct: expressed in transfected cells; host or cells: HEK-293 or CHO
The series is described as follows: Off-target radioligand binding. As to conditions: 10 μM compound.

The mark [27] stands for this setting: brain (cortical tissue), 3.5 mg/kg.
[28] abbreviates: mice, 15 min after 3.0 mg/kg Cmpd-21 i.p.
The mark [29] stands for this setting: mice, 60 min after 3.0 mg/kg Cmpd-21 i.p.

Chain of 5-HT3 serotonin receptor (P46098 24-478): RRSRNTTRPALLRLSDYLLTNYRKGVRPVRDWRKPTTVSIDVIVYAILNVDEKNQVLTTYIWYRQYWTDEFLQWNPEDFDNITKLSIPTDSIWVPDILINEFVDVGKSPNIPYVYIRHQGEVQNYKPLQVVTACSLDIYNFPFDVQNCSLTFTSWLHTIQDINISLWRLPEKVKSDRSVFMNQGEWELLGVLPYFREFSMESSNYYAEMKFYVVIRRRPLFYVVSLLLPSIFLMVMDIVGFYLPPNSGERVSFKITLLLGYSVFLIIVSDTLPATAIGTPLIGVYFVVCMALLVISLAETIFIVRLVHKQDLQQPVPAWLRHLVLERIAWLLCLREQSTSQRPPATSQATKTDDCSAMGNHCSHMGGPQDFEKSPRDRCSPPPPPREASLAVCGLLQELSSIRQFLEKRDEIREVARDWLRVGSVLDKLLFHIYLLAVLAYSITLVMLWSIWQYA
Chain of Lck kinase (P06239 whole entry): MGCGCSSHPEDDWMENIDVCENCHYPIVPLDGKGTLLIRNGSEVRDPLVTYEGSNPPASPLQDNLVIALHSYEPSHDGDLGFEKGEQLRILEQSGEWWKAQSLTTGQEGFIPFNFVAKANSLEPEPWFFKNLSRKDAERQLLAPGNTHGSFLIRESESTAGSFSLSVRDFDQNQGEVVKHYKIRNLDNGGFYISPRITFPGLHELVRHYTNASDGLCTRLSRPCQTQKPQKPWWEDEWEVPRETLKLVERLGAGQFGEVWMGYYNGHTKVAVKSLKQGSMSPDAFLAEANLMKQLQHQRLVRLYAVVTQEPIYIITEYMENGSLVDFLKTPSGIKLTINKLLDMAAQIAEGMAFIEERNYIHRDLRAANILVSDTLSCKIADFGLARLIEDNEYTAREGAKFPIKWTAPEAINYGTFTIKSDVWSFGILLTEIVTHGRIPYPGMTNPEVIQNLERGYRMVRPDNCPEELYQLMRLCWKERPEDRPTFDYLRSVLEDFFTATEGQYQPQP
T10 sequence (P08172 whole entry): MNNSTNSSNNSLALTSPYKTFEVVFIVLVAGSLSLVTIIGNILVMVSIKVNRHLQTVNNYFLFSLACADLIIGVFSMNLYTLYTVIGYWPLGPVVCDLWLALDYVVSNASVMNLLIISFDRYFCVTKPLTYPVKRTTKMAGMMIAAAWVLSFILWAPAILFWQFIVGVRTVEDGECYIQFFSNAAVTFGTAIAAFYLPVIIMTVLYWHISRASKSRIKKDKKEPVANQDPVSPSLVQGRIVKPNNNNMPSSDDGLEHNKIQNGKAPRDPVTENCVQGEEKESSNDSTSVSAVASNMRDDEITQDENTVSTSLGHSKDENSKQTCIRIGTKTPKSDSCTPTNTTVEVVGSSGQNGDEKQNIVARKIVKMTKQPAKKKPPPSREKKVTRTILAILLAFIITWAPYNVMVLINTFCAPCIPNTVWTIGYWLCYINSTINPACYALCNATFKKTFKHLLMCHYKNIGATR
T13 sequence (P11229 whole entry): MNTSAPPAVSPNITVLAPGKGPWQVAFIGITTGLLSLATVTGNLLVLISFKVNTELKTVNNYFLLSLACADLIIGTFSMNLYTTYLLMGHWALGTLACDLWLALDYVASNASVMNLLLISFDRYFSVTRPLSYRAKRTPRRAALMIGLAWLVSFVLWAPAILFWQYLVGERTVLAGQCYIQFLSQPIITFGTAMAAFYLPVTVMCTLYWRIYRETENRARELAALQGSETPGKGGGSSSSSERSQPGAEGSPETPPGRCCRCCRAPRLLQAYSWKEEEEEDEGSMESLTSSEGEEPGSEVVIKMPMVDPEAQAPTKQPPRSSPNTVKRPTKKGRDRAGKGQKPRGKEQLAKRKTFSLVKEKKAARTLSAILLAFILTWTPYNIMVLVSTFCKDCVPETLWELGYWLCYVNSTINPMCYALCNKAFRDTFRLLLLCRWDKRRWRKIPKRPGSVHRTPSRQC
T1 sequence (P20309 whole entry): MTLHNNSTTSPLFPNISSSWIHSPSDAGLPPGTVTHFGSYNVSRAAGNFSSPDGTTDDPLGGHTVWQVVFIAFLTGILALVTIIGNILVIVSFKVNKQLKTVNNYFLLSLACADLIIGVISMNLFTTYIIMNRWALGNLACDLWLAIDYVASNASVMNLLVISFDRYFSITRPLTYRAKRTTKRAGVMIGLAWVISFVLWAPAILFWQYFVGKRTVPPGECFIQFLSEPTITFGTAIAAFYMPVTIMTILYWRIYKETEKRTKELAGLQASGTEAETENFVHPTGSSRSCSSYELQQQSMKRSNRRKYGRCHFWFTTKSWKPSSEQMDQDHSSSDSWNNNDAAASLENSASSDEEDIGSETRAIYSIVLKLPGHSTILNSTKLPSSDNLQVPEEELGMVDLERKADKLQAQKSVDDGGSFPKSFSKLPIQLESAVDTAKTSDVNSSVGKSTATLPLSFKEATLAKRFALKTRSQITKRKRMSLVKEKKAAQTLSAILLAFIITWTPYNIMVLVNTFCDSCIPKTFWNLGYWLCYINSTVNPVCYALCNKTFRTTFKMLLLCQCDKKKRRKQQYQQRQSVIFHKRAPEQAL
T7 sequence (P08908 whole entry): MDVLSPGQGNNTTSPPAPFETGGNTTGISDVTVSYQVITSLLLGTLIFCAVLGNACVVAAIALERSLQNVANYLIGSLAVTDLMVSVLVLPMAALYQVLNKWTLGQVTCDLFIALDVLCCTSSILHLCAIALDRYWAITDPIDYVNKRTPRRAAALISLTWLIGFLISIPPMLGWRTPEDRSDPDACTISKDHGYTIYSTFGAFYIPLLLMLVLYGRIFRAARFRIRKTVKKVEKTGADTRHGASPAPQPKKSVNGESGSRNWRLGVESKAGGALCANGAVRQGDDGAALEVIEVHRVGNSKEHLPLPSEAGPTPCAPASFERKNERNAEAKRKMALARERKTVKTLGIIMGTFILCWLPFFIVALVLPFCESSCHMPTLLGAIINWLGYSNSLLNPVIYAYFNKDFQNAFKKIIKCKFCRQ
T6 sequence (P28223 whole entry): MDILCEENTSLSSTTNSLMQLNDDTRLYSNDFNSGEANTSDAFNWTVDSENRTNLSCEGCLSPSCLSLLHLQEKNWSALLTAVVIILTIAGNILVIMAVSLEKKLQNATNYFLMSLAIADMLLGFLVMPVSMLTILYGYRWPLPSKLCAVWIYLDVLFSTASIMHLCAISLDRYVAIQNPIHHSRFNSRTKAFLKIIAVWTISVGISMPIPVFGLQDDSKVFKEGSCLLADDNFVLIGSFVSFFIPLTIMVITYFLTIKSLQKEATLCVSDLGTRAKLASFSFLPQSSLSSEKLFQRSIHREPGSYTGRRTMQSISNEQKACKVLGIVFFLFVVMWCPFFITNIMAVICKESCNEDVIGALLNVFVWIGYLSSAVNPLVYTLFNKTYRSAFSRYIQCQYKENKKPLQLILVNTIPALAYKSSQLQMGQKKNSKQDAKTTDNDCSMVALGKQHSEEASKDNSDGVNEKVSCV
Chain of PDE4D2 (Q08499 303-809): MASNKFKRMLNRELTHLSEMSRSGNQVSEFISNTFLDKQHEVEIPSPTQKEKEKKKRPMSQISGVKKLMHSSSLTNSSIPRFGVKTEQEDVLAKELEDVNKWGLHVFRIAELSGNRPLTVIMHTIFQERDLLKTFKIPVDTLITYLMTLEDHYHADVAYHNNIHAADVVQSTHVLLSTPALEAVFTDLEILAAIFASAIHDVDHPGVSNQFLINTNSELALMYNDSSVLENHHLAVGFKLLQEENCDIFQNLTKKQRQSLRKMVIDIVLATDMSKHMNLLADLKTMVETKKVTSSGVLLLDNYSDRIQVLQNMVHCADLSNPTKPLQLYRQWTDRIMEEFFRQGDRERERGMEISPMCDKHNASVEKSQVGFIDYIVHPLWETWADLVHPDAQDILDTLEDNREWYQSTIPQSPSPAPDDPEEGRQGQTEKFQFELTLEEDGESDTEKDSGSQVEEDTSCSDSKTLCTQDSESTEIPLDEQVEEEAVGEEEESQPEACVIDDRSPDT
T3 sequence (P41595 whole entry): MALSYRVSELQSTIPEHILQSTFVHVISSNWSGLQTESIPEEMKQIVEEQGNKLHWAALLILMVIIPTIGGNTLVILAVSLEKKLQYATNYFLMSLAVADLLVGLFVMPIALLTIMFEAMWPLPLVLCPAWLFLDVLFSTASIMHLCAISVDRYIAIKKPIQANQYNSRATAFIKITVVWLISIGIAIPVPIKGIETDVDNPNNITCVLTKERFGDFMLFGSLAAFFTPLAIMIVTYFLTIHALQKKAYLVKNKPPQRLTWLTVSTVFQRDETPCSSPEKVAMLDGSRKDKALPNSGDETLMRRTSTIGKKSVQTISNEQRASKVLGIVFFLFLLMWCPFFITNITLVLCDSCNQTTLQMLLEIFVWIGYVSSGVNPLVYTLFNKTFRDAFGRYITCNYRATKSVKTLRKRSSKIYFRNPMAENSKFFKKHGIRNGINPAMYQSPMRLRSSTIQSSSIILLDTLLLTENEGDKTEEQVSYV
Chain of COX2 (P35354 18-604): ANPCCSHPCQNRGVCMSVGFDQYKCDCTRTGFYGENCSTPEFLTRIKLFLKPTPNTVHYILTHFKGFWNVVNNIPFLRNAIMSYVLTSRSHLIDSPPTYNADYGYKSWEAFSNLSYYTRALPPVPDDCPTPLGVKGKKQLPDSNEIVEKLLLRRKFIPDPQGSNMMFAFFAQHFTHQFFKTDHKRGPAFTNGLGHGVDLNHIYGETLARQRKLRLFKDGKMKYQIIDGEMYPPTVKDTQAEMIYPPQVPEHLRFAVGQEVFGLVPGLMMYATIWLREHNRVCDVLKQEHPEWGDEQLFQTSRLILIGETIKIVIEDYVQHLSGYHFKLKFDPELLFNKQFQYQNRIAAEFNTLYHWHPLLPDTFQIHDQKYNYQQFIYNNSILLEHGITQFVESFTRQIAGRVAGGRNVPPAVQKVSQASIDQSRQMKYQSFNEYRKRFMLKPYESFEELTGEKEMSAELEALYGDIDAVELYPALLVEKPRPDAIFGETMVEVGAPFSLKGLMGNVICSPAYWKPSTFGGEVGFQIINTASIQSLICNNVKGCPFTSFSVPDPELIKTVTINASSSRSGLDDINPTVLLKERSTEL

As for `CN1CCN(C2=Nc3cc(Cl)ccc3Nc3ccccc32)CC1` [CLZ, clozapine], the Kp in [1] (C57BL/6J, CSF, 1 mg/kg) was about 0.01. For the same molecule, the concentration at 15 min in [1] (CSF, 1 mg/kg) is 1.9 nM; in series [1] (setting [27]) it was about 427 nM; in series [1] (brain, 1 mg/kg) it was 2060 nM; in [1] (plasma, 1 mg/kg), 344 nM. Besides, the concentration at 60 min in series [1] (setting [27]) turned out to be 406 nM; in series [1] (brain, 1 mg/kg), 1020 nM; in series [1] (plasma, 1 mg/kg) it was 123 nM. The same molecule registered a Kp at 15 min in series [1] (brain, 1 mg/kg) of about 6. Besides, the Tmax (as a rule, the time from dosing to the highest level) in [1] (plasma, brain and CSF, 1 mg/kg) was 15 min. Further, the attentional accuracy result in series [2] (CLZ 0.1 mg/kg i.p., p = 0.0439) is listed as “mild decrease”. Besides, the “omissions (inattentiveness)” value in series [2] (CLZ 1 mg/kg i.p., p = 0.0108) is on record as “mild increase”. Besides, the “behavioural changes in 5-CSRTT parameters” value in [2] (CLZ 0.1, 0.3 and 1 mg/kg i.p., vs vehicle) is “did not produce any significant behavioural changes in most 5-CSRTT parameters”. For the same molecule, the “mean CLZ plasma concentration as % of mean CNO plasma concentration” value in [3] (mice, 15 min after i.p. 3.5 mg/kg CNO) is reported as “approximately 3.3%”. Further, the “free (CSF) concentration as % of the brain concentration” value in series [3] (mice, after i.p. 1 mg/kg CLZ) is given as “approximately 0.1%”. Besides, in series [3] (mice, all sampling points (15, 30, 60 min) after i.p. 3.5 mg/kg CNO, detection limit), the “concentration in CSF” value lay in the range of 1 to 2.5 nM. For the same molecule, the “decline within 60 min in plasma and brain tissue” value in series [3] (mice, single injection of CLZ) is reported as “approximately 2 fold”.

Regarding `c1ccc2c(c1)N=C(N1CCNCC1)c1ccccc1N2` [Cmpd-21, compound 21], the “competitive inhibition of ligand binding” value in series [4], in series [6], in [9], in [11], in series [13] and in [14] was over 50% throughout. Moreover, the “competitive inhibition of ligand binding” value in [16], in [18], in [20], in [21], in series [22] and in series [23] was over 50% throughout. Besides, the “competitive inhibition of ligand binding” value in [24], in [25] and in [26] was over 50% throughout. Also, the inhibition (usually the change of the read-out against control, counted positive when it falls) in [5] is 60%; in series [7], under 25%; in series [8], under 25%; in [10], under 25%; in [15] it was under 25%; in [17], under 25%. In [2] (Cmpd-21 0.3, 1 and 3 mg/kg i.p.), the “behavioural changes in 5-CSRTT parameters” value is on record as “did not produce any significant behavioural changes in any 5-CSRTT parameters”. Moreover, the EC50 in series [12] was 1.7 nM; in series [19] it was 2.95 nM. The mean brain concentration in [3] (setting [28]) was 722 nM; in [3] (setting [29]), 1273 nM. Also, the “mean concentration in CSF” value in series [3] (setting [28]) came out at 52 nM. Further, in series [3] (setting [28]), the “mean concentration in plasma” value is recorded as 5833 nM. The “CSF concentration as % of peak value” in [3] (setting [29]) is given as 54%. Moreover, in series [3] (setting [29]), the “plasma concentration as % of peak value” stood at 57%. In addition, in series [3] (mice, after 3.0 mg/kg Cmpd-21 i.p., earliest time point of measurement), the “time of peak plasma and CSF levels” value is on record as 15 min. Moreover, the “conversion to CLZ or CNO” value in series [3] (mice, data not shown) was “did not detect any conversion”.

`Clc1ccc2c(c1)N=C(N1CCNCC1)c1ccccc1N2` [NorCLZ, norclozapine]: in series [3] (mice, 15, 30, 60 min after i.p. 1 mg/kg CLZ), the “detection of metabolite in plasma” value is recorded as “detectable in all plasma samples”.
